# Target: T1, human POLγ 3′-5′ exonuclease activity (Homo sapiens, UniProt P54098)
# T1 sequence (P54098 1-1239): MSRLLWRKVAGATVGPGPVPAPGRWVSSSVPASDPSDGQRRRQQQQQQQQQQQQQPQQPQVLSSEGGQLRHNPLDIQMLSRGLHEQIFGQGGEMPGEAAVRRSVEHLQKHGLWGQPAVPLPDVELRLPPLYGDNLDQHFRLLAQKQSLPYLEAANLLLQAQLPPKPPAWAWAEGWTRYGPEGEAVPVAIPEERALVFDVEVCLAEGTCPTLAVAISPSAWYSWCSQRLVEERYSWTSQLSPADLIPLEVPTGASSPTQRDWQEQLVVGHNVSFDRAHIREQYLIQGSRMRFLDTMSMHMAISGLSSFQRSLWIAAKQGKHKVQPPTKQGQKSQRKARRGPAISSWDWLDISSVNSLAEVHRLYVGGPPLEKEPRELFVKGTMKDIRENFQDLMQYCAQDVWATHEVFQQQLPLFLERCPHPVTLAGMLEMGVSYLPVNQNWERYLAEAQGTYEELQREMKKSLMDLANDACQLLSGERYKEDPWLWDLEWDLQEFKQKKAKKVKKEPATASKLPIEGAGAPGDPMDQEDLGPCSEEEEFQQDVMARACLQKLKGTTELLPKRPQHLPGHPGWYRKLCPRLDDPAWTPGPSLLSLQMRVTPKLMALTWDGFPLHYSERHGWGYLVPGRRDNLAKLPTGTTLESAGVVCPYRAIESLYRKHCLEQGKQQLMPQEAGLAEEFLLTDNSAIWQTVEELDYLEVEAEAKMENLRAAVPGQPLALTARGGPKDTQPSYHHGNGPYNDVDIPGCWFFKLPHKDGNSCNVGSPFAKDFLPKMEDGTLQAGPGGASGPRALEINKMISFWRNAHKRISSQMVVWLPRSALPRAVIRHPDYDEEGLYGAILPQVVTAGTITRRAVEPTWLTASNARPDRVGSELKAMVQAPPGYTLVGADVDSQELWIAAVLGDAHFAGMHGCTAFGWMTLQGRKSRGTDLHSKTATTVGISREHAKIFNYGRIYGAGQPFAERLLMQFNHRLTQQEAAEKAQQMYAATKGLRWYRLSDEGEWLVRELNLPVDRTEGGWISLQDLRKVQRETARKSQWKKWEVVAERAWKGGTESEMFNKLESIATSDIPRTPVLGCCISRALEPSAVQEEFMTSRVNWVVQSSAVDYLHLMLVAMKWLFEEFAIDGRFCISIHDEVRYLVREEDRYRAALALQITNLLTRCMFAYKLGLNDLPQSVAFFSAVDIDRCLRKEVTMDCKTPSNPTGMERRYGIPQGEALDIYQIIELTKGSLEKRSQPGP
# T1 sequence (Q9UHN1 1-485 partner): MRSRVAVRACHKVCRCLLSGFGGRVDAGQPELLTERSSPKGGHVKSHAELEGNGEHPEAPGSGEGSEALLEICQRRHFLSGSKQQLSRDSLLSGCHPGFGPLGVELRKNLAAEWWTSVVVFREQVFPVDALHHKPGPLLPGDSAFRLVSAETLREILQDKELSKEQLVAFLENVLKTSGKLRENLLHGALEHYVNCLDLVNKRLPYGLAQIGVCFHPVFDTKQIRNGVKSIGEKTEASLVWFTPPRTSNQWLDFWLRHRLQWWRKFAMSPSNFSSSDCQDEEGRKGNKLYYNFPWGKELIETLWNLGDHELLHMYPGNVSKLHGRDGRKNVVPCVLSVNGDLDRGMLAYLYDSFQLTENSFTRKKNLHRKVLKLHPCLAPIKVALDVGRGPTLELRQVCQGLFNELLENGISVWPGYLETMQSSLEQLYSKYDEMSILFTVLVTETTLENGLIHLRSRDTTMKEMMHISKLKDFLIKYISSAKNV
# Assay: Exonuclease inhibition assay with human POLγ (SYBR Green I fluorescence)
# Type: biochemical
# Settings: POLγA 1 nM, POLγB 1.3 nM, 5 nM exonuclease template, no dNTPs, 37° C. 2.5 hours
# Method: Exonuclease inhibition assay with human POLγ.
# The ability of small molecules to inhibit the 3′-5′ exonuclease activity of POLγ was analyzed in a quantitative fluorescence SYBR Green I assay with fluorescence intensity (FI) readout.
# Human POLγ was incubated with a linear, partially double-stranded template containing an 85 base pair double-stranded DNA stretch and a 15 nucleotides long single-stranded 5′-tail (hereafter referred to as the “exonuclease template”). […] When bound to double-stranded DNA, SYBR Green I fluorescence increases by up to 100-fold. In the absence of deoxynucleotide triphosphates (dNTPs), the exonuclease activity of POLγ degrades the 85-mer strand, which leads to the formation of single-stranded DNA (ssDNA) and decreased fluorescent intensity. The assay was performed in a 384-well plate format.
# The exonuclease template used was generated by hybridization of a 100 nucleotides long, single-stranded DNA molecule with an inverted dT at the 3′-end (5′-TTTTTTTTTATCCGGGCTCGTTATCTAAGCTGCTCTTGGTAGGCATTGACGTCCATACTGCAAATTCAGCTCTGTGCAGTTAGGCAGGAGTCTACAAGC invT-3′) to an 85 nucleotides long single-stranded DNA molecule (5′-AGCTTGTAGACTCCTGCCTAACTGCACAGAGCTGAATTTGCAGTATGGACGTCAATGCCTACCAGAGCAGCTTAGATAACGAGC-3′), using a Bio-Rad T100 Thermal Cycler. The inverted dT is characterized by a 3′-3′ linkage, which inhibits both degradation of the 3′-5′ exonuclease activity and extension by DNA polymerases.
# POLγ is an heterotrimer of one POLγA subunit (harboring exonuclease and DNA polymerase activities) and two accessory POLγB subunits. Proteins used in the exonuclease assay were POLγA (NP_002684) and POLγB (NP_009146).
# The protein mixture used in the assays contained POLγA (1 nM), POLγB (1.3 nM, concentration calculated as a dimer), 25 mM Tris-HCl (pH 8.0), 0.1 mg/mL bovine serum albumin, 1 mM Bond-Breaker TCEP solution (pH 7) [Thermo Fisher], 25 mM NaCl, and 0.02% Triton X-100.
# The DNA template mixture used in the assay contained 5 nM of the exonuclease template, 25 mM Tris-HCl (pH 8.0), 10 mM MgCl2, 0.1 mg/mL bovine serum albumin, 1 mM Bond-Breaker TCEP solution [Thermo Fisher], and 0.02% Triton X-100.
# Microplates with compounds (0.1 μL in each well) to be tested in the assay were prepared from 10 mM compound stocks in 100% DMSO, and equal amounts of DMSO without any compound were added to positive and negative control wells.
# The protein mixture containing POLγ was dispensed (5 μL in each well) into compound plates and incubated at 37° C. for 15 minutes to allow compound binding to the POLγ complex. After incubation, 5 μL of the DNA template mixture was dispensed into each well. The plates were incubated at 37° C. for 2.5 hours.
# During incubation, a combined stop buffer and detection reagent solution was prepared. The buffer contained 25 mM EDTA (pH 8.0), 0.02% Triton X-100, and SYBR Green I [Invitrogen] diluted 10,000× (for fluorescent readout). EDTA will stop the enzymatic reaction by chelating magnesium ions.
# After the 2.5-hour incubation period, the SYBR Green I solution was added (10 μL) to the screening plates and the plates were incubated at room temperature in the dark for 20 minutes before the fluorescent signal was read between […] on a BMG Pherastar microtiter plate reader.
row,IC50,Molecule
1,3 µM,"Cc1cc(S(=O)(=O)Nc2cccc(C(=O)N(C)C(C)CO)c2)c(C)cc1Cl (single isomer, unassigned) [Example 14, 3-((4-chloro-2,5-dimethylphenyl)sulfonamido)-N-(1-hydroxypropan-2-yl)-N-methylbenzamide]"
2,4 µM,"Cc1ccc(C)c(S(=O)(=O)Nc2cccc(C(=O)N3CCCCC3C#N)c2)c1 (stereo not shown) [Example 2, N-(3-(2-cyanopiperidine-1-carbonyl)phenyl)-2,5-dimethylbenzenesulfonamide]"
3,10 µM,"Cc1ccc(C)c(S(=O)(=O)Nc2cccc(C(=O)N3CCCCC3)c2)c1 [Example 3, 2,5-dimethyl-N-(3-(piperidine-1-carbonyl)phenyl)benzene sulfonamide]"
4,48 µM,"Cc1ccc(C)c(S(=O)(=O)Nc2cccc(C(=O)NCC3CC3)c2)c1 [Example 4, N-(cyclopropylmethyl)-3-((2,5-dimethylphenyl)sulfonamido)benzamide]"
5,3 µM,"Cc1ccc(C)c(S(=O)(=O)Nc2cccc(C(=O)N3CCCC[C@H]3C)c2)c1 [Example 5, (R)-2,5-dimethyl-N-(3-(2-methylpiperidine-1-carbonyl)phenyl)benzenesulfonamide]"
6,12 µM,"Cc1ccc(C)c(S(=O)(=O)Nc2cccc(C(=O)N3CCCC[C@@H]3C)c2)c1 [Example 6, (S)-2,5-dimethyl-N-(3-(2-methylpiperidine-1-carbonyl)phenyl)benzenesulfonamide]"
7,1 µM,"Cc1ccc(C)c(S(=O)(=O)Nc2cccc(C(=O)N3CCOCC3C#N)c2)c1 (stereo not shown) [Example 7, N-(3-(3-cyanomorpholine-4-carbonyl)phenyl)-2,5-dimethylbenzenesulfonamide]"
8,9 µM,"Cc1ccc(C)c(S(=O)(=O)Nc2cccc(C(=O)N[C@@H](C)C3CC3)c2)c1 [Example 8, (S)-N-(1-cyclopropylethyl)-3-((2,5-dimethylphenyl)sulfonamido)benzamide]"
9,2 µM,"Cc1cc(S(=O)(=O)Nc2cccc(C(=O)N3CCCC[C@H]3C)c2)c(C)cc1Cl [Example 9, (R)-4-chloro-2,5-dimethyl-N-(3-(2-methylpiperidine-1-carbonyl)phenyl)benzenesulfonamide]"
10,0.8 µM,"Cc1cc(S(=O)(=O)Nc2cccc(C(=O)N3CCC[C@H]3C)c2)c(C)cc1Cl [Example 10, (R)-4-chloro-2,5-dimethyl-N-(3-(2-methylpyrrolidine-1-carbonyl)phenyl)benzenesulfonamide]"
11,> 100 µM,"Cc1cc(S(=O)(=O)Nc2cccc(C(=O)NCc3ccccc3)c2)c(C)cc1Cl [Example 11, N-benzyl-3-((4-chloro-2,5-dimethylphenyl)sulfonamido)benzamide]"
12,5 µM,"Cc1cc(S(=O)(=O)Nc2cccc(C(=O)N(C)C)c2)c(C)cc1Cl [Example 12, 3-((4-chloro-2,5-dimethylphenyl)sulfonamido)-N,N-dimethylbenzamide]"
13,6 µM,"Cc1cc(S(=O)(=O)Nc2cc(F)cc(C(=O)N3CCC[C@H]3C)c2)c(C)cc1Cl [Example 13, (R)-4-chloro-N-(3-fluoro-5-(2-methylpyrrolidine-1-carbonyl)phenyl)-2,5-dimethylbenzenesulfonamide]"
14,12 µM,"Cc1cc(S(=O)(=O)Nc2cccc(-c3nccs3)c2)c(C)cc1Cl [Example 16, 4-chloro-2,5-dimethyl-N-(3-(thiazol-2-yl)phenyl)benzenesulfonamide]"
15,> 100 µM,"Cc1cc(S(=O)(=O)Nc2cccc(-c3ncco3)c2)c(C)cc1Cl [Example 17, 4-chloro-2,5-dimethyl-N-(3-(oxazol-2-yl)phenyl)benzenesulfonamide]"
16,81 µM,"Cc1cc(S(=O)(=O)Nc2cccc(-c3ccn(C)n3)c2)c(C)cc1Cl [Example 18, 4-chloro-2,5-dimethyl-N-(3-(1-methyl-1H-pyrazol-3-yl)phenyl)benzenesulfonamide]"
17,8 µM,"Cc1cc(S(=O)(=O)Nc2cccc(-c3nccn3C)c2)c(C)cc1Cl [Example 19, 4-chloro-2,5-dimethyl-N-(3-(1-methyl-1H-imidazol-2-yl)phenyl)benzenesulfonamide]"
18,6 µM,"Cc1cc(S(=O)(=O)Nc2ccc3c(c2)CC(=O)N3)c(C)cc1Cl [Example 185, 4-chloro-2,5-dimethyl-N-(2-oxoindolin-5-yl)benzenesulfonamide]"

row,Molecule,IC50
1,"(R)-2,5-dimethyl-N-(3-(3-methylmorpholine-4-carbonyl)phenyl)benzenesulfonamide [Example 1]",7 µM

# Reference: patent US20260138961A1, “MODULATORS OF MITOCHONDRIAL DNA REPLICATION” (Pretzel Therapeutics, Inc., priority 2022, published 2026)
